Measured values from US20210163443A1, “Febrifugine Derivatives” (BRISTOL-MYERS SQUIBB COMPANY, priority 2019, published 2021).
Counter-ions that a name gives are not always drawn.

Biological target: T1, human ProRS (prolyl tRNA synthetase moiety of glutamyl prolyl tRNA synthetase, EPRS) (Homo sapiens, UniProt P07814)
T1 construct: The prolyl tRNA synthetase moiety (ProRS) in the cDNA of glutamyl prolyl tRNA synthetase was subcloned; 6xHis (N, cleaved yes); made in house; host or cells: E. coli BL21 (DE3)
T1 sequence (P07814 1007-1512 limits assumed): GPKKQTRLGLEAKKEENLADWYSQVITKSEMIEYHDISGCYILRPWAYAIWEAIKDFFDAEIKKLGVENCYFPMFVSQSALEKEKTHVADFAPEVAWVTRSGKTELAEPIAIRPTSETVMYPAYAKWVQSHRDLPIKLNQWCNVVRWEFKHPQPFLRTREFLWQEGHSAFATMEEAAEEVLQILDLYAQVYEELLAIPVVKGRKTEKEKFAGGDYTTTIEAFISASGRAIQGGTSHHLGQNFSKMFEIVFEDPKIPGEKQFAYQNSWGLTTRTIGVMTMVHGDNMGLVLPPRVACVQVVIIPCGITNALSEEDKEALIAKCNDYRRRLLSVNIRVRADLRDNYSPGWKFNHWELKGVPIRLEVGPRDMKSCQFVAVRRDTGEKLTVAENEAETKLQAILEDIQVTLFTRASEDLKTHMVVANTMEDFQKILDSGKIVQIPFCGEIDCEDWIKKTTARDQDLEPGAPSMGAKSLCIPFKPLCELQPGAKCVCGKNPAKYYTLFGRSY
Test: Assay for inhibitors of prolyl tRNA synthetase activity (ProRS assay, labeled proline incorporation)
Type: biochemical
Conditions: human ProRS 20 nM, 10 min at 37° C.; read-out: EPRS IC50
Description: In order to establish the activities of the compounds highlighted above, we determined extent of inhibition of prolyl tRNA synthetase activity in dose response curves to obtain IC50 values.
The prolyl tRNA synthetase moiety (ProRS) in the cDNA of glutamyl prolyl tRNA synthetase was subcloned, tagged with a single biotin, purified and used in the assay.
Briefly, human ProRS with a 6×N-terminal His tag in pET28N with TVMV BioP was transformed in E. coli BL21 (DE3) cells, selected, overexpressed and purified using a Ni Seph 6 FF XK 16/20 column in the first stage. Ni-NTA eluates were pooled and treated with TVMV protease, and biotinylated using d-Biotin, MgCl2, ATP and the BirA enzyme. This was rerun through a Ni column as before. The eluates were further enriched and purified using membrane ultrafiltration and a SuperDex 200 XK 16/60 column, and peak fractions were confirmed by SDS-PAGE prior to protein amount determination, aliquoting and storage at −80° C. • ProRS assay was performed in 96 well plates in a final reaction volume of 20 μl, using staggered additions of Tris-Cl (pH 7.5, 60 mM), dithiothreitol (2 mM), ATP (5 mM, pH 7.0), MgCl2 6 mM), ProRS (20 nM, with pre-determined active fraction range) and bovine tRNA (20 μg). Controls and compounds, at various concentrations (10 μM to 0.5 nM), were incubated on ice with enzyme mix for 15 min followed by addition of proline (non-labeled and labeled, 3.96 and 1.04 μM (1 μCi) respectively) to initiate the reaction. Reaction was carried out for 10 min at 37° C. and terminated by addition of TCA (10%, 100 μl). Reaction mix was collected on a Whatman GF/B filter using a vacuum filtration manifold. This filter was washed 3 times with 5% TCA followed by 2 washes with ethanol, air dried, and read using a liquid scintillation counter (TopCount NXT) using MicroScint O. IC50 values were calculated and analyzed using ToolSet (4-parameter plot) and depicted herein.

Row | SMILES | IC50 [nM]
1 | Cl.O=c1c2c(F)cccc2ncn1C[C@@H](O)C[C@H]1NCCC[C@@H]1O [Example 40, 5-Fluoro-3-{(S)-2-hydroxy-3-[(2R,3S)-3-hydroxypiperidin-2-yl]propyl}quinazolin-4(3H)-one hydrochloride] | 302
2 | CCc1cc(Br)cc2c(=O)n(C[C@@H](O)C[C@H]3NCCC[C@@H]3O)cnc12.Cl [Example 48, 6-Bromo-8-ethyl-3-{(S)-2-hydroxy-3-[(2R,3S)-3-hydroxypiperidin-2-yl]propyl}quinazolin-4(3H)-one hydrochloride] | 83
3 | Cc1cc(Br)cc2c(=O)n(CC(=O)C[C@H]3NCCC[C@@H]3O)cnc12.Cl [Example 3, 6-Bromo-3-{3-[(2R,3S)-3-hydroxypiperidin-2-yl]-2-oxopropyl}-8-methylquinazolin-4(3H)-one hydrochloride] | 4
4 | Cc1cc(C(F)(F)F)cc2c(=O)n(CC(=O)C[C@H]3NCCC[C@@H]3O)cnc12 [Example 9, 3-{3-[(2R,3S)-3-Hydroxypiperidin-2-yl]-2-oxopropyl}-8-methyl-6-(trifluoromethyl)quinazolin-4(3H)-one hydrochloride] | 7
5 | Cc1cc(Br)cc2c(=O)n(C[C@@H](O)C[C@H]3NCCC[C@@H]3O)cnc12 [Example 37, 6-Bromo-3-{(S)-2-hydroxy-3-[(2R,3S)-3-hydroxypiperidin-2-yl]propyl}-8-methylquinazolin-4(3H)-one hydrochloride] | 62
6 | Cc1cc(C#N)cc2c(=O)n(CC(=O)C[C@H]3NCCC[C@@H]3O)cnc12 [Example 12, 3-{3-[(2R,3S)-3-Hydroxypiperidin-2-yl]-2-oxopropyl}-8-methyl-4-oxo-3,4-dihydroquinazoline-6-carbonitrile hydrochloride] | 17
7 | O=c1c2cc(-c3cccc(C(F)(F)F)c3)ccc2ncn1C[C@@H](O)C[C@H]1NCCC[C@@H]1O [Example 52, 3-{(S)-2-hydroxy-3-[(2R,3S)-3-hydroxypiperidin-2-yl]propyl}-6-(3-(trifluoromethyl)phenyl)quinazolin-4(3H)-one hydrochloride] | 40
8 | Cc1cc(-c2ccc(F)c(F)c2)cc2c(=O)n(C[C@@H](O)C[C@H]3NCCC[C@@H]3O)cnc12 [Example 56, 6-(3,4-Difluorophenyl)-3-{(S)-2-hydroxy-3-[(2R,3S)-3-hydroxypiperidin-2-yl]propyl}-8-methylquinazolin-4(3H)-one hydrochloride] | 4
9 | Cc1cc(C(F)(F)F)cc2c(=O)n(C[C@@H](O)C[C@H]3NCCC[C@@H]3O)cnc12 [Example 44, 3-{(S)-2-Hydroxy-3-[(2R,3S)-3-hydroxypiperidin-2-yl]propyl}-8-methyl-6-trifluoromethyl)quinazolin-4(3H)-one hydrochloride] | 20
10 | Cc1cc(C2CCNCC2)cc2c(=O)n(C[C@@H](O)C[C@H]3NCCC[C@@H]3O)cnc12 [Example 69, 3-{(S)-2-hydroxy-3-[(2R,3S)-3-hydroxypiperidin-2-yl]propyl}-8-methyl-6-(piperidin-4-yl)quinazolin-4(3H)-one dihydrochloride] | 106
11 | Cc1cc(-c2cscn2)cc2c(=O)n(C[C@@H](O)C[C@H]3NCCC[C@@H]3O)cnc12 [Example 66, 3-((S)-2-hydroxy-3-((2R,3S)-3-hydroxypiperidin-2-yl)propyl)-8-methyl-6-(thiazol-4-yl)quinazolin-4(3H)-one hydrochloride] | 13
12 | Cc1cc(-c2ccn(C)n2)cc2c(=O)n(C[C@@H](O)C[C@H]3NCCC[C@@H]3O)cnc12 [Example 64, 3-{(S)-2-hydroxy-3-[(2R,3S)-3-hydroxypiperidin-2-yl]propyl}-8-methyl-6-(1-methyl-1H-pyrazol-3-yl)quinazolin-4(3H)-one hydrochloride] | 30
13 | O=C(C[C@H]1NCCC[C@@H]1O)Cn1cnc2cccc(F)c2c1=O [Example 5, 5-Fluoro-3-{3-[(2R,3S)-3-hydroxypiperidin-2-yl]-2-oxopropyl}quinazolin-4(3H)-one hydrochloride] | 8
14 | O=c1c2c(-c3cccnc3)cccc2ncn1C[C@@H](O)C[C@H]1NCCC[C@@H]1O [Example 62, 3-{(S)-2-Hydroxy-3-[(2R,3S)-3-hydroxypiperidin-2-yl]propyl}-5-(pyridin-3-yl)quinazolin-4(3H)-one dihydrochloride] | 53
15 | Cc1ccc(C(F)(F)F)c2c(=O)n(CC(=O)C[C@H]3NCCC[C@@H]3O)cnc12 [Example 29, 3-{3-[(2R,3S)-3-Hydroxypiperidin-2-yl]-2-oxopropyl}-8-methyl-5-(trifluoromethyl)quinazolin-4(3H)-one hydrochloride] | 313
16 | Cc1cc(C2CCOCC2)cc2c(=O)n(C[C@@H](O)C[C@H]3NCCC[C@@H]3O)cnc12 [Example 57, 3-{(S)-2-Hydroxy-3-[(2R,3S)-3-hydroxypiperidin-2-yl]propyl}-8-methyl-6-(tetrahydro-2H-pyran-4-yl)quinazolin-(3H)-one hydrochloride] | 52
17 | O=C(C[C@H]1NCCC[C@@H]1O)Cn1cnc2cccc(-c3ccc(F)c(F)c3)c2c1=O [Example 27, 5-(3,4-Difluorophenyl)-3-{3-[(2R,3S)-3-hydroxypiperidin-2-yl]-2-oxopropyl}quinazolin-4(3H)-one hydrochloride] | 6

Test system: Rat hepatocytes
Test: GSH trapping assay in rat hepatocytes
Type: in vitro ADME
Conditions: 30 μM, 24 hr incubation, LC-MS
Method: Rat hepatocytes were isolated from male Sprague-Dawley rats (Vivo Biotech Ltd, HYD, India), weighing 230 to 280 g by the two step collagenase perfusion method (seglen, 1976; Berry M N and Friend D S.1969). Rat hepatocytes were cultured in Dulbecco's Modified Eagle's Medium (DMEM, Gibco®, USA) supplemented with 10^−6 M dexamethasone (Gibco®), 5% fetal bovine serum (Gibco®) and cocktail-A mix (CM3000, Gibco®) containing HEPES buffer (PH 7.4), GlutaMAX™, human recombinant insulin, penicillin and streptomycin. Initial cell viability assessed by Trypanblue stain 0.4% (Sigma, UK) and viability more than 80% were considered for culturing. Hepatocytes were seeded in 96 well type-I collagen coated plates (Gibco®) at 4×10^4 cells/well in 100 μL of the culture medium and incubated at 37° C. in 5% CO2 and 95% relative humidity (RH) for 4 hr of cell attachment.
After 4 hr incubation, rat hepatocytes were washed twice with pre-warmed (37° C.) DMEM incubation medium supplemented with 10^−7 M dexamethasone and cell maintenance cocktail-B (CM4000, Gibco®) solution to remove unattached cells. Post washing hepatocytes were treated with test and reference compounds in incubation medium at single concentration (30 μM) in duplicate and incubate further for 24 hr at 37° C. with 5% CO2 and 95% RH. The final concentration of DMSO in medium was 0.5%.
Post 24 hr incubation, hepatocyte samples were quenched with equal volumes of acetonitrile containing 0.1% formic acid followed by vortex mix, sonicate and centrifuge at 12000 rpm at room temperature for 5 min. Supernatant samples were analyzed for GSH adducts on a C18 reverse-phase column (Xbridge™ Shield, C18, 4.6×150 mm, 3.5 μm) with solvent A (10 mM ammonium formate and 0.1% formic acid/water) and solvent B (0.1% formic acid/acetonitrile).
The column was eluted with 5% B for 5 min and then with a linear gradient to 20% B over 10 min and it was maintained up to 15 min, then it was increased linearly to 40% B up to 27 min and then increase to 90% B up to 29 min, and then equilibrate back the column to 5% B up to 33 min at a flow rate of 0.6 ml/min. The column effluent was directed into the ESI source of a LTQ Velos Orbitrap mass spectrometer (Thermo Fisher Scientific, San Jose, Calif.). The ESI conditions were as follows: sheath gas flow rate, 40 arbitrary units; auxiliary gas, 30 arbitrary units; spray voltage, 4.5 kV; capillary temperature, 230° C.; capillary voltage, 30 V; and tube lens offset, 25 V. Data were acquired in positive ion mode using Xcalibur software (Thermo Fisher Scientific) with one full scan followed by two data-dependent scans of the most intense and the second most intense ions. During the data interpretation the characteristic fragments of neutral loss of glycine (75.0320 Da), pyroglutamic acid (129.0426 Da) and loss of neutral moiety GSH (307.0838 Da) and/or a specific fragment of (GSH+H)^+ (m/z 308.0911) were monitored. Finally the fragments ions with m/z e.g. 179.0485, 177.0328 and 162.0219 Da, which were derived from the glutathione moiety were used to report GSH positive results.

Row | SMILES | GSH adduct formation
18 | Cl.O=c1c2c(F)cccc2ncn1C[C@@H](O)C[C@H]1NCCC[C@@H]1O [Example 40, 5-Fluoro-3-{(S)-2-hydroxy-3-[(2R,3S)-3-hydroxypiperidin-2-yl]propyl}quinazolin-4(3H)-one hydrochloride] | Negative
19 | CCc1cc(Br)cc2c(=O)n(C[C@@H](O)C[C@H]3NCCC[C@@H]3O)cnc12.Cl [Example 48, 6-Bromo-8-ethyl-3-{(S)-2-hydroxy-3-[(2R,3S)-3-hydroxypiperidin-2-yl]propyl}quinazolin-4(3H)-one hydrochloride] | Negative
20 | Cc1cc(Br)cc2c(=O)n(CC(=O)C[C@H]3NCCC[C@@H]3O)cnc12.Cl [Example 3, 6-Bromo-3-{3-[(2R,3S)-3-hydroxypiperidin-2-yl]-2-oxopropyl}-8-methylquinazolin-4(3H)-one hydrochloride] | Negative
21 | Cl.O=c1c2c(-c3cccc(F)c3)cccc2ncn1C[C@@H](O)C[C@H]1NCCC[C@@H]1O [Example 49] | Negative
